Results published in paper PMC10095747, “Modulatory Effects of Atractylodin and β-Eudesmol on Human Cytochrome P450 Enzymes: Potential Drug-Drug Interactions” (Molecules, 2023).
pIC50: −log10 of the molar value. Where two headings read alike, the source gives them in different places.

Legend:
mCYP1A2 mRNA = assay: ex vivo mCYP1A2 mRNA expression in mouse livers (real-time PCR); conditions: male ICR mice, daily oral 100 mg/kg body weight, vs control
Excerpt: (§1) Eight-week-old male ICR (Imprinting Control Region) mice weighing 35–40 g were used to investigate the modulatory effects of atractylodin and β-eudesmol on mCYP1A2 and mCYP3A11. The study protocol was approved by the Ethics Committee for Animal Research at Thammasat University (protocol number 016/2020). All animals were obtained from Nomura Siam International Co., Ltd. (Bangkok, Thailand). The animals were acclimatized for one week before the experiments. A total of 36 mice were allocated to three groups (i) control group (3 mice), (ii) atractylodin-treated group, and (iii) β-eudesmol-treated group. For atractylodin and β-eudesmol-treated groups, animals were fed with 100 mg/kg body weight of each compound for 1, 7, 14, and 21 (3 mice for each dose). Experiments were performed under the guidelines for the care and use of laboratory animals in a controlled environment of 12 h dark/light cycle, temperature 22 ± 2 °C, and relative humidity 30–70% at the Thammasat University Animal Center. Animals were observed daily for changes in signs and symptoms by a veterinarian. Mice were allowed access to the food pellets and water ad libitum.
Total mRNA was extracted from mouse livers using Trizol according to the manufacturer’s instructions. The concentration of mRNA was quantified by a nanodrop spectrophotometer. The First-Strand cDNA Synthesis Kit was used to generate cDNA from RNA. The CFX96 Touch Real-Time PCR Detection System was used to determine the expressions of mCYP1A2, mCYP3A11, and β-actin genes using the iTaq Universal SYBR Green Supermix. The PCR condition and the delta-delta Ct calculation were according to the previously described article. All primers used in this study were synthesized by Gibthai Co. Ltd. (Bangkok, Thailand).

rCYP2C9 = rCYP2C9 (Homo sapiens, UniProt P11712); assay: luminogenic P450-Glo CYP450 inhibition assay, rCYP2C9; conditions: three independent experiments
Excerpt: The luminescent cytochrome P450 assay was used to determine CYP450-mediated (CYP1A2, 2C9, 2C19, 2D6, and 3A4) metabolism of atractylodin and β-eudesmol. The assay consisted of each recombinant human CYP450 (rCYP450), control membranes lacking P450 activity, a luminogenic CYP450 substrate (luciferin-ME substrate for rCYP1A2, luciferin-H substrate for rCYP2C9, luciferin-H EGE substrate for rCYP2C19, luciferin-ME EGE substrate for rCYP2D6, and luciferin-IPA substrate for rCYP3A4), KPO4 buffer, luciferin free water, NADPH regeneration system, and a luciferin detection reagent. The rCYP450 enzymes were generated from a baculovirus-infected insect cell expression system. The concentrations of the recombinant CYPs used were 0.5 (rCYP1A2 and rCYP2C9), 0.25 (rCYP2C19 and rCYP2D6) or 0.2 (rCYP3A4) pmol (0.5μL) per reaction. […] A luciferin product was produced after adding 25 µL of NADPH Regeneration System (solution A, solution B, and luciferin-free water) and incubated at 37 °C for 10 (rCYP1A2 and rCYP3A4), 20 (rCYP2C19 and rCYP2C9) or 30 (rCYP2D6) minutes. The reaction was stopped and converted to a luminescent signal after adding Luciferin Detection Reagent (50 µL) and incubated at 25 °C for 20 min. The luminescence signals obtained were determined using a Varioskan® Flash microplate reader (Waltham, MA, USA). The magnitude of luminescence in all of the samples represented CYP450 activity. […] All stock solutions were diluted with luciferin-free water until the final concentration of organic solvent was less than 0.25% (v/v) of the total reaction. The concentration range of atractylodin and β-eudesmol used were 2.74–686 µM and 2.25–562 µM, respectively. […] The concentration that inhibited the activity of each rCYP450 by 50% (IC50) was calculated using Calcusyn software (Cambridge, UK). Data are reported as the median (range) of the three independent experiments.

mCYP3A11 = assay: ex vivo mCYP3A11 activity in mouse liver microsomes (nifedipine oxidation); conditions: daily oral 100 mg/kg body weight
Excerpt: Phenacetin and nifedipine are substrates of CYP1A2 and CYP3A11, respectively. Both substrates are converted via the CYP enzyme to paracetamol and dehydronefedipine, respectively. The concentrations of paracetamol and dehydronefedipine were used to determine the activities of mCYP1A2 and mCYP3A11. The effects of atractylodin and β-eudesmol on mCYP1A2 and mCYP3A11 activities were, respectively, determined by measuring paracetamol (mCYP1A2-dependent metabolite) and dehydronifiedipine (mCYP3A11-dependent metabolite) concentrations.
as §1
(§2) Mouse liver samples were cut into small pieces, and the liver microsomes were prepared as described previously. The concentrations of proteins in the microsomes were determined using Pierce™ BCA Protein Assay Kit. mCYP1A2 and mCYP3A11 activities were evaluated based on phenacetin O-deethylation and nifedipine oxidation activities, respectively. The incubation mixture of 500 µL consisted of microsomes, substrate ([…]), and NADPH. […] The final organic solvent concentration in the incubation mixture was not higher than 1%. Each experiment was repeated three times (duplicated each). Determination of the concentrations of metabolites of mCYP1A2 (paracetamol) and mCYP3A11 (dehydronifedipine) in the reaction was performed using HPLC Agilent 1260 Infinity II with mobile gradient phase between methanol and distilled water at an initial ratio of 20:80 (v:v) and UV detection (240 nm). Calibration curves for both CYP450 activities were created over a concentration range of 1–50 µM. Oxidized nifedipine concentrations were determined using HPLC as follows: UV detection at 235 nm with an isocratic mobile phase consisting of methanol and distilled water (70:30, v:v). […] In each analytical batch, quality control (QC) samples were run in duplicate at low, medium, and high concentrations. Acceptance criteria were four out of six QC analyses falling within 100 ± 15% of the nominal values.

mCYP1A2 = assay: ex vivo mCYP1A2 protein expression in mouse liver microsomes (western blot); conditions: daily oral 100 mg/kg body weight
Excerpt: as §1, §2
The microsomal protein concentration for both mCYP1A2 and […] was 25 μg protein per lane. Proteins were denatured by combining equal volumes of liver microsomes with sample buffer (1:19 (v:v) of 2-mercaptoethanol and 2x Laemmle buffer) and heating at 100 °C for 5 min. Proteins were separated using 12% SDS-PAGE according to their size characteristics before being migrated to nitrocellulose blotting membranes.

Chain of rCYP2C9 (P11712 whole entry): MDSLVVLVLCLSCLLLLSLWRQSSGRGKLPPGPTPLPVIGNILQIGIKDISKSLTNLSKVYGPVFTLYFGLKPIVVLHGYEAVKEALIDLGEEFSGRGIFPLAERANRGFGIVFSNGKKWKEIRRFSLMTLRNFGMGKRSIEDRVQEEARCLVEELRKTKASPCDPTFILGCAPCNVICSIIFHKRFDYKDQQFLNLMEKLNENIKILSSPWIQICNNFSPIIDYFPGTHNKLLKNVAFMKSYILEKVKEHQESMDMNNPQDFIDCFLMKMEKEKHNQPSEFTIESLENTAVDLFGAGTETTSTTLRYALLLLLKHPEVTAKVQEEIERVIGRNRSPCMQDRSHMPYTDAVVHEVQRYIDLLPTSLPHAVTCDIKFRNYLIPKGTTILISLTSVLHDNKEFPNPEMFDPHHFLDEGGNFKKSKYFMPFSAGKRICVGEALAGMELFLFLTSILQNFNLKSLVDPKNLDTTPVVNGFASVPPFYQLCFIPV

C/C=C/C#CC#C/C=C/c1ccco1 [Atractylodin]
Fold-changes of mCYP1A2 mRNA levels (mCYP1A2 mRNA; 1 day, 100 mg/kg): 1.6 fold
Fold-changes of mCYP1A2 mRNA levels (mCYP1A2 mRNA; 1 day, listed as Atactylodin, 100 mg/kg): 1.60 fold
Fold-changes of mCYP1A2 mRNA levels (mCYP1A2 mRNA; 7 days, 100 mg/kg): 1.2 fold
Fold-changes of mCYP1A2 mRNA levels (mCYP1A2 mRNA; 7 days, listed as Atactylodin, 100 mg/kg): 1.20 fold
Fold-changes of mCYP1A2 mRNA levels (mCYP1A2 mRNA; 14 days): 0.89 fold
Fold-changes of mCYP1A2 mRNA levels (mCYP1A2 mRNA; 21 days): 0.71 fold
Median IC50 (Range) rCYP2C9 (rCYP2C9; median (range)): >125 µg/mL
pIC50 (rCYP2C9; read-out: Median IC50 (Range) rCYP2C9, median (range)): < 3.16
Dehydronifedipine concentration (mCYP3A11 activity) (mCYP3A11; 1 day, control 6.70, 100 mg/kg): significant reduction
Dehydronifedipine concentration (mCYP3A11 activity) (mCYP3A11; 1 day, control 6.70, listed as Atactylodin, 100 mg/kg): 5.35 µM
Dehydronifedipine concentration (mCYP3A11 activity) (mCYP3A11; 7 days, control 6.90, 100 mg/kg): significant reduction
Dehydronifedipine concentration (mCYP3A11 activity) (mCYP3A11; 7 days, control 6.90, listed as Atactylodin, 100 mg/kg): 5.20 µM
Dehydronifedipine concentration (mCYP3A11 activity) (mCYP3A11; 14 days, control 7.55, 100 mg/kg): significant reduction
Dehydronifedipine concentration (mCYP3A11 activity) (mCYP3A11; 14 days, control 7.55, listed as Atactylodin, 100 mg/kg): 6.10 µM
Dehydronifedipine concentration (mCYP3A11 activity) (mCYP3A11; 21 days, control 7.75, 100 mg/kg): significant reduction
Dehydronifedipine concentration (mCYP3A11 activity) (mCYP3A11; 21 days, control 7.75, listed as Atactylodin, 100 mg/kg): 3.75 µM
Protein expression ratio of mCYP1A2 (mCYP1A2; 1 day, control 1.5): 1.39
Protein expression ratio of mCYP1A2 (mCYP1A2; 7 days, control 1.88): 1.55
Protein expression ratio of mCYP1A2 (mCYP1A2; 14 days, control 2.42): 1.77
Protein expression ratio of mCYP1A2 (mCYP1A2; 21 days, control 2.20, 100 mg/kg): significantly downregulated
Protein expression ratio of mCYP1A2 (mCYP1A2; 21 days, control 2.20, listed as Atactylodin, 100 mg/kg): 1.33

C=C1CCC[C@]2(C)CC[C@@H](C(C)(C)O)C[C@@H]12 [β-Eudesmol]
Fold-changes of mCYP1A2 mRNA levels (mCYP1A2 mRNA; 1 day): 2.63 fold
Fold-changes of mCYP1A2 mRNA levels (mCYP1A2 mRNA; 7 days): 1.44 fold
Fold-changes of mCYP1A2 mRNA levels (mCYP1A2 mRNA; 14 days): 1.37 fold
Fold-changes of mCYP1A2 mRNA levels (mCYP1A2 mRNA; 21 days): 0.91 fold
pIC50 (rCYP2C9; Median IC50 (Range) rCYP2C9, median (range)): 3.27
Dehydronifedipine concentration (mCYP3A11 activity) (mCYP3A11; 1 day, control 6.70): 6.90 µM
Dehydronifedipine concentration (mCYP3A11 activity) (mCYP3A11; 7 days, control 6.90): 7.5 µM
Dehydronifedipine concentration (mCYP3A11 activity) (mCYP3A11; 14 days, control 7.55, listed as β-eudesmol, 100 mg/kg): significantly reduced
Dehydronifedipine concentration (mCYP3A11 activity) (mCYP3A11; 14 days, control 7.55, listed as β‐eudesmol, 100 mg/kg): 4.00 µM
Dehydronifedipine concentration (mCYP3A11 activity) (mCYP3A11; 21 days, control 7.75, listed as β-eudesmol, 100 mg/kg): significantly reduced
Dehydronifedipine concentration (mCYP3A11 activity) (mCYP3A11; 21 days, control 7.75, listed as β‐eudesmol, 100 mg/kg): 3.20 µM
Protein expression ratio of mCYP1A2 (mCYP1A2; 1 day, control 1.5): 1.06
Protein expression ratio of mCYP1A2 (mCYP1A2; 7 days, control 1.88): 1.83
Protein expression ratio of mCYP1A2 (mCYP1A2; 14 days, control 2.42): 2.05
Protein expression ratio of mCYP1A2 (mCYP1A2; 21 days, control 2.20, listed as β-eudesmol, 100 mg/kg): significantly downregulated
Protein expression ratio of mCYP1A2 (mCYP1A2; 21 days, control 2.20, listed as β‐eudesmol, 100 mg/kg): 1.00
